Experimental data reported in BindingDB's records for patent US12187742 (Xrad Therapeutics, 2025).

biological target: DNA-dependent protein kinase catalytic subunit (Homo sapiens, UniProt P78527); assay: DNA-PK Enzyme-Linked Immunosorbent Assay
Protocol: On day one, coat 96-well plate (ThermoFisher. Cat #: 442404) with GST-p53 (1-101) peptide (purified by Pharmaron, BCS department) by diluting 3 μg of GST-p53 each well with 0.1 M Na2CO3/NaHCO3, pH 9.6. Incubate the plate overnight at 4° C. The second day, remove coating buffer, wash 2× with PBST (1×PBS containing 0.1% Tween-20). Then add DNA-PK enzyme solution (Invitrogen, #PR9107A; the final DNA-PK concentration is 0.1 μg/mL), series dilution compounds (the final top concentration is 100 nM, 3 fold series dilution, with total 10 doses) and ATP solution (the final ATP concentration is 20 μM) to the 96-well plate. Incubate the plate at 25° C. for 1 hour. Then wash 3× with PBST (1×PBS containing 0.1% Tween-20). Block the plate with PBST+ 1% BSA at 4° C. overnight. The third day, wash 4× with PBST (1×PBS containing 0.1% Tween-20). Then add Phospho-p53 primary antibody (cell signaling Technology, #9286, Phospho-p53 (Ser15) (16G8) Mouse mAb) (1/1000) to each well. Seal with plate and incubate the plate for 1 h at 37° C. Wash 4× with PBST (1×PBS containing 0.1% Tween-20), add 100 μL of HRP-linked secondary antibody (Cell signaling Technology, #7076, Anti-mouse IgG, HRP-linked Antibody) (1/1000) to each well. Seal with tape and incubate the plate for 30 min at 37° C. Wash 4× with PBST (1×PBS containing 0.1% Tween-20), add 100 μL of TMB (Cell signaling Technology, #7004) substrate to each well. Seal with tape and incubate the plate for 10 min at 37° C. Then add 100 μL of Stop solution (Cell signaling Technology, #7002) to each well. Read the plate at 450 nm to detect absorption.

DNA-dependent protein kinase catalytic subunit, sequence (P78527 whole entry): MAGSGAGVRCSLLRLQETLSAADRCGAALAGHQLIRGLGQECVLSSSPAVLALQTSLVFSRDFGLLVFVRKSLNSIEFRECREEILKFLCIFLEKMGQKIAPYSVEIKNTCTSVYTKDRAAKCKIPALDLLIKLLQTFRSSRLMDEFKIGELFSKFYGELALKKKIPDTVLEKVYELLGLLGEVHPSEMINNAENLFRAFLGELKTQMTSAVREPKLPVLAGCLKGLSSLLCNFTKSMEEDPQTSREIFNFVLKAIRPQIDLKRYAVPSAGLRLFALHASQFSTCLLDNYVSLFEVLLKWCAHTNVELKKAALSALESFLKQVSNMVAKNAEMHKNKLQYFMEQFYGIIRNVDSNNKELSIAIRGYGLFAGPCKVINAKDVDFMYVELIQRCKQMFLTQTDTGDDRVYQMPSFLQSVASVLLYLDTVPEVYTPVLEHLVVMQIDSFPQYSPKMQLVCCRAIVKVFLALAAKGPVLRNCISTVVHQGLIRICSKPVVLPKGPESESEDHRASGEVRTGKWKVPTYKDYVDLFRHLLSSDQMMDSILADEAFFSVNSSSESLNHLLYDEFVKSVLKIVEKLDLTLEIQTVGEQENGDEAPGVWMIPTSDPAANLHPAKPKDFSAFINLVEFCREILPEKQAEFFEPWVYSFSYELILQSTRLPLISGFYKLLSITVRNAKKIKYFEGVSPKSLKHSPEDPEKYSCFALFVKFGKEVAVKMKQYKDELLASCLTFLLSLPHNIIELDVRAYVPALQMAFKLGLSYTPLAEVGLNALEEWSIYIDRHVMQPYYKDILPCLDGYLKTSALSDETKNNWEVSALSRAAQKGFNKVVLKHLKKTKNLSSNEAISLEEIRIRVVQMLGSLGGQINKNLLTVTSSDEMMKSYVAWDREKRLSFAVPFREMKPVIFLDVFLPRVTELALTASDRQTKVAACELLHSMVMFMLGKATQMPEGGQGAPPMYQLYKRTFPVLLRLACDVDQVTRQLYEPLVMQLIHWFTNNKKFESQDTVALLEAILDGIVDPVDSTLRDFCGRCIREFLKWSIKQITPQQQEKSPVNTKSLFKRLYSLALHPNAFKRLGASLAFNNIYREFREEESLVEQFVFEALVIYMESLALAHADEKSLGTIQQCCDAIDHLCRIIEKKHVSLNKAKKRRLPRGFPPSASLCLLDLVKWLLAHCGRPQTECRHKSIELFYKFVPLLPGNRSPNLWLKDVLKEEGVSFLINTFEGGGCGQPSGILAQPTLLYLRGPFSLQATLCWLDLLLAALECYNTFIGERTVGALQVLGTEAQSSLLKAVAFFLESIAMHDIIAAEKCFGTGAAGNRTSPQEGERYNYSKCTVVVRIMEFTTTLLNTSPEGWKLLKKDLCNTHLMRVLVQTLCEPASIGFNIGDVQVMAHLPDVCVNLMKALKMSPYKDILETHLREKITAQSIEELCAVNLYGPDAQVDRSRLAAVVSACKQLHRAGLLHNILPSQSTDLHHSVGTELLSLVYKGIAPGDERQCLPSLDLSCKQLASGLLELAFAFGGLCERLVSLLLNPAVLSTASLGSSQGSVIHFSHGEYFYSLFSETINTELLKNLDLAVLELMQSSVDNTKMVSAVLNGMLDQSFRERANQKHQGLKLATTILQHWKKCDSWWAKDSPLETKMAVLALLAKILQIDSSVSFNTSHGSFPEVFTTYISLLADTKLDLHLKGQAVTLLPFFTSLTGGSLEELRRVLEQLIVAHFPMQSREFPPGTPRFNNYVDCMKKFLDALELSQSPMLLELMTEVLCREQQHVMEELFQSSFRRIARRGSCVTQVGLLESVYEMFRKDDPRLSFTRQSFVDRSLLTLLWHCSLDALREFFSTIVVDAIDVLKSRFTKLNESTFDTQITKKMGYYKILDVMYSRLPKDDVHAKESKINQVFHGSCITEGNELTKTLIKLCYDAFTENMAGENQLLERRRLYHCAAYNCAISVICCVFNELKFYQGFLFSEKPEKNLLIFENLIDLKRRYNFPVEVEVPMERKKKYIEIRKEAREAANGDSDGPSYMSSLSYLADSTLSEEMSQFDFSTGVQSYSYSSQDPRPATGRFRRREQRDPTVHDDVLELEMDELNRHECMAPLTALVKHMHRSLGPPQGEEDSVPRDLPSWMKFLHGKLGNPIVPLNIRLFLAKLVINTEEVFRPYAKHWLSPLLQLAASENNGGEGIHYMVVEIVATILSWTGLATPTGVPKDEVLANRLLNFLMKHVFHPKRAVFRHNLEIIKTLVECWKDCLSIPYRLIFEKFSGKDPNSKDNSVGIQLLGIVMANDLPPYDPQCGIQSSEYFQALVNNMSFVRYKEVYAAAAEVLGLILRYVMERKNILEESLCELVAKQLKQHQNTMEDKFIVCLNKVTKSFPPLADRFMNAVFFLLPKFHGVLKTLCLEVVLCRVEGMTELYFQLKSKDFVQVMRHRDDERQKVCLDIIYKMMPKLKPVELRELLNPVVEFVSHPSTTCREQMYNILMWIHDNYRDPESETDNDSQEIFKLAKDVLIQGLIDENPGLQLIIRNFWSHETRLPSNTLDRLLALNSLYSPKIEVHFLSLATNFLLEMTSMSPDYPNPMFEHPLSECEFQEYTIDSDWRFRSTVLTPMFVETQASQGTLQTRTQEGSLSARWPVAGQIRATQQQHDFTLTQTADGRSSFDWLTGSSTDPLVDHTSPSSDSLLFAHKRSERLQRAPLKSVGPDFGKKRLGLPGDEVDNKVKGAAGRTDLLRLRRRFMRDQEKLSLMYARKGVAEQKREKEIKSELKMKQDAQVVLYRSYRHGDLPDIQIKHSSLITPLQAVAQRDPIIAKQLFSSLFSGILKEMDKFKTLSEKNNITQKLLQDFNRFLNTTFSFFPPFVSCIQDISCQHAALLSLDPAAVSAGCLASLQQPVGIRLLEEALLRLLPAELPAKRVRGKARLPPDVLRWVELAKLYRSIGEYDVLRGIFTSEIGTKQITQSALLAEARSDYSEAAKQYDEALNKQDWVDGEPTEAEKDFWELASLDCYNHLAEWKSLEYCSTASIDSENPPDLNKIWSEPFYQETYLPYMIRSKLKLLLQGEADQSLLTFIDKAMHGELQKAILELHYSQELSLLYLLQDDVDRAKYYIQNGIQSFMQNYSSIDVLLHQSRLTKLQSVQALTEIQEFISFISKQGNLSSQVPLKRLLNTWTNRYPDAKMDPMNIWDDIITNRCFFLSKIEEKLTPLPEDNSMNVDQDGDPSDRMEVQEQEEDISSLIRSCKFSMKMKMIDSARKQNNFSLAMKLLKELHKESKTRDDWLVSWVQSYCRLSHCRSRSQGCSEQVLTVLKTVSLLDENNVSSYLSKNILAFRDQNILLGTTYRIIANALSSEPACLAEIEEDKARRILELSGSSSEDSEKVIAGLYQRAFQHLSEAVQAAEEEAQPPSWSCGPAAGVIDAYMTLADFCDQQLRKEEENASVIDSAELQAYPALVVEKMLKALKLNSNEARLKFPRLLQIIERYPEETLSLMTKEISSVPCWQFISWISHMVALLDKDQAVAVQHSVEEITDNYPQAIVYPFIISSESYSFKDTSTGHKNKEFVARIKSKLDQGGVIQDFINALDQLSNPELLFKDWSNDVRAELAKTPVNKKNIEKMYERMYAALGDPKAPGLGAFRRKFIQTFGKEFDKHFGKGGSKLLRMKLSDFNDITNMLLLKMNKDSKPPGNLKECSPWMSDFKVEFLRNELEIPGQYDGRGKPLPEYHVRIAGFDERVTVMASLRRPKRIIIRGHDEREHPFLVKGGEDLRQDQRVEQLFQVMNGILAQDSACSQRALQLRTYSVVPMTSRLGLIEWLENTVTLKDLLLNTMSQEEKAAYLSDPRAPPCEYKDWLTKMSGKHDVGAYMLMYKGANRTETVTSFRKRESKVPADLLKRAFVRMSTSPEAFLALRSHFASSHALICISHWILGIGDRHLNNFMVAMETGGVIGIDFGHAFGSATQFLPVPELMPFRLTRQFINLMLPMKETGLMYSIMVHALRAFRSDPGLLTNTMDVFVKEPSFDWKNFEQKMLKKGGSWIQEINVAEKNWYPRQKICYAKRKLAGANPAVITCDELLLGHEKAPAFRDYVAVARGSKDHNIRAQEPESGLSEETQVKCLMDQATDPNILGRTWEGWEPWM

IC50, < 0.5 nM:
COc1ncc(-c2ccc3ncc4c(c3c2)C2(CC2)C(=O)N4C)cc1NS(=O)(=O)c1cccc(C(C)O)c1 (configuration not stated) [US12187742, Example 18]
CN1C(=O)C2(CC2)c2c1cnc1ccc(-c3cnc(OCCCN4CCCC4)c(NS(=O)(=O)C4CC4)c3)cc21 [US12187742, Example 60]
CN(C)CCCOc1ncc(-c2ccc3ncc4c(c3c2)C2(CC2)C(=O)N4C)cc1NS(=O)(=O)c1cccnc1 [US12187742, Example 85]
CN(C)CCCOc1ncc(-c2ccc3ncc4c(c3c2)C2(CC2)C(=O)N4C)cc1NS(=O)(=O)c1ccc(C(F)(F)F)cc1 [US12187742, Example 108]
CN(C)CCCOc1ncc(-c2ccc3ncc4c(c3c2)C2(CC2)C(=O)N4C)cc1NS(=O)(=O)c1cccs1 [US12187742, Example 120]
CN1CC=C(c2ncc(-c3ccc4ncc5c(c4c3)C3(CCC3)C(=O)N5C)cc2NS(C)(=O)=O)CC1 [US12187742, Example 276]
CC(C)NCCOc1ncc(-c2ccc3ncc4c(c3c2F)C2(CCC2)C(=O)N4C)cc1NS(C)(=O)=O [US12187742, Example 556]
